Marks after values point to notes of the source that are not given here.
test system: not listed separately; assay: Predicted metabolic stability, mouse hepatic microsomes; assay type: in vitro ADME; conditions: 10^−7 M, mouse hepatic microsomes 0.33 mg of prot/ml, NADPH
Experimental: (§1) The predicted metabolic stability is tested by incubation of the compounds at a concentration of 10^−7M in the presence of mouse, rat or human hepatic microsomes (0.33 mg of prot/ml). After addition of NADPH (nicotinamide adenine dinucleotide phosphate, reduced form), samples are taken at 0, 5, 15, 30 and 60 minutes. The enzymatic reaction is stopped using methanol (V/V). The protein is precipitated by centrifugation and the supernatant is analysed by LC-MS-MS.

Structure (SMILES)	% metabolic stability predicted using hepatic microsomes, Mouse [%]
CN1CCC=C(C(=O)Nn2ccc3ccccc32)C1 [Example 1, N-(1H-indol-1-yl)-1-methyl-1,2,5,6-tetrahydropyridine-3-carboxamide]	40
CN1CCN(CCN2CCCC(C(=O)Nn3ccc4ccccc43)C2)CC1 (stereo not drawn) [Example 25, N-(1H-indol-1-yl)-1-[2-(4-methyl-1-piperazinyl)ethyl]-3-piperidine-carboxamide]	85

biological target: dopaminergic receptors (type D1) (Homo sapiens, UniProt P21728); assay: Affinity for receptors, displacement of labelled specific ligand: D1; assay type: binding; conditions: concentration 10^−5 M
Sequence (P21728 whole entry): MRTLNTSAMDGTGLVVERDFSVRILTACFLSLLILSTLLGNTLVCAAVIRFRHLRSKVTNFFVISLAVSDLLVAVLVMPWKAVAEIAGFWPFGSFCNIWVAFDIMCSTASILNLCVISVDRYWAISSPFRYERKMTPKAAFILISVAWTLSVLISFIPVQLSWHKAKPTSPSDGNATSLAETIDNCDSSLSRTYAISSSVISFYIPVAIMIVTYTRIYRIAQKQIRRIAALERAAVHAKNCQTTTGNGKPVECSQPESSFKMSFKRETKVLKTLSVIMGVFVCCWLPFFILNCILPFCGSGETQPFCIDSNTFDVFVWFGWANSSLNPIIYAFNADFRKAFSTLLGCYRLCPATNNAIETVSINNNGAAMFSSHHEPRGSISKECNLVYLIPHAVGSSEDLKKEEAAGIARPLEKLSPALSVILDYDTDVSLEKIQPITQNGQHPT

Structure (SMILES)	inhibition at 10 µM [%]
CN1CCC=C(C(=O)Nn2ccc3ccccc32)C1 [Example 1, N-(1H-indol-1-yl)-1-methyl-1,2,5,6-tetrahydropyridine-3-carboxamide]	< 10
CN1CCN(CCN2CCCC(C(=O)Nn3ccc4ccccc43)C2)CC1 (stereo not drawn) [Example 25, N-(1H-indol-1-yl)-1-[2-(4-methyl-1-piperazinyl)ethyl]-3-piperidine-carboxamide]	< 10

same assay, conditions: concentration 10^−7 M

Structure (SMILES)	inhibition at 0.1 µM [%]
CN1CCC=C(C(=O)Nn2ccc3ccccc32)C1 [Example 1, N-(1H-indol-1-yl)-1-methyl-1,2,5,6-tetrahydropyridine-3-carboxamide]	< 10
CN1CCN(CCN2CCCC(C(=O)Nn3ccc4ccccc43)C2)CC1 (stereo not drawn) [Example 25, N-(1H-indol-1-yl)-1-[2-(4-methyl-1-piperazinyl)ethyl]-3-piperidine-carboxamide]	< 10

test system: muscarinic (M) receptors; assay: Affinity for receptors, displacement of labelled specific ligand: muscarinic; assay type: binding; conditions: concentration 10^−5 M
Experimental: (§2) The affinity for receptors is determined according to customary methods of relations between the specific ligand and the receptor, which may be of animal origin or a human recombinant. The affinity was determined by the method of displacement of the labelled specific ligand by the compound under test and expressed by the dissociation constant KI. The receptor affinity was accordingly studied for 28 conventional receptors.

Structure (SMILES)	% inhibition M [%]
CN1CCC=C(C(=O)Nn2ccc3ccccc32)C1 [Example 1, N-(1H-indol-1-yl)-1-methyl-1,2,5,6-tetrahydropyridine-3-carboxamide]	23
CN1CCN(CCN2CCCC(C(=O)Nn3ccc4ccccc43)C2)CC1 (stereo not drawn) [Example 25, N-(1H-indol-1-yl)-1-[2-(4-methyl-1-piperazinyl)ethyl]-3-piperidine-carboxamide]	27

test system: sigma (σ) receptors (ligand: haloperidol); assay: Affinity for receptors, displacement of labelled specific ligand: sigma; assay type: binding; conditions: concentration 10^−5 M
Experimental: as §2

Structure (SMILES)	% inhibition σ [%]
CN1CCC=C(C(=O)Nn2ccc3ccccc32)C1 [Example 1, N-(1H-indol-1-yl)-1-methyl-1,2,5,6-tetrahydropyridine-3-carboxamide]	44
CN1CCN(CCN2CCCC(C(=O)Nn3ccc4ccccc43)C2)CC1 (stereo not drawn) [Example 25, N-(1H-indol-1-yl)-1-[2-(4-methyl-1-piperazinyl)ethyl]-3-piperidine-carboxamide]	100

same assay, conditions: concentration 10^−7 M

Structure (SMILES)	% inhibition σ [%]
CN1CCN(CCN2CCCC(C(=O)Nn3ccc4ccccc43)C2)CC1 (stereo not drawn) [Example 25, N-(1H-indol-1-yl)-1-[2-(4-methyl-1-piperazinyl)ethyl]-3-piperidine-carboxamide]	17

test system: tyrosine hydroxylase (TH) protein; assay: Induction of tyrosine hydroxylase (TH) in LC, SN and VTA of the mouse brain; assay type: in vivo, Balb/C mouse; conditions: LC section 1 (posterior-to-anterior), i.p. 20 mg/kg, three days after single injection, relative to mean value of control group
From the text: A search is made among the compounds for those which are capable of bringing about an increase in the tyrosine hydroxylase (TH) protein in the locus coeruleus (LC), substantia nigra (SN) and ventral tegmental area (VTA) of the brain of the Balb/C mouse. The animals used are consanguinal male mice of the pure Balb/C strain (Charles River Laboratories) aged 6 weeks at the time of treatment.
The mice are given a single injection, by the intraperitoneal route, of the compound under test, dissolved in 0.04M HCl solution (corresponding control: 0.04M HCl), if the compound is sufficiently soluble, or in olive oil 90%/DMSO 10% (corresponding control: olive oil 90%/DMSO 10%) for compounds that are insoluble in an aqueous medium. The volume injected is 100 μl. The test groups comprise 10 animals.
Three days after the injection of each compound, all the animals are sacrificed by decapitation. The brains are removed and then frozen in an isopentane solution at −30° C. for 45 seconds and subsequently stored at −80° C.
Serial coronal sections 20 microns thick are then taken using a cryomicrotome. Each structure of interest is then sampled along the posterior-anterior axis of the brain by taking sections at 80-micron spacings in the case of the LC and at 80- or 160-micron spacings in the case of the VTA and SN. The limits of those structures are those described in the atlas of Franklin and Paxinos. The total proteins of each of those sections are transferred by direct collection of the sections to a nitrocellulose filter (Millipore). The amounts of TH present in each sample are measured by immunochemistry, fluorimetric detection and image analysis.

Structure (SMILES)	amount of TH in LC section 1 [%]
CN1CCC=C(C(=O)Nn2ccc3ccccc32)C1 [Example 1, N-(1H-indol-1-yl)-1-methyl-1,2,5,6-tetrahydropyridine-3-carboxamide]	57

same assay, conditions: LC section 2, i.p. 20 mg/kg, three days after single injection, relative to mean value of control group

Structure (SMILES)	amount of TH in LC section 2 [%]
CN1CCC=C(C(=O)Nn2ccc3ccccc32)C1 [Example 1, N-(1H-indol-1-yl)-1-methyl-1,2,5,6-tetrahydropyridine-3-carboxamide]	72

same assay, conditions: LC section 3, i.p. 20 mg/kg, three days after single injection, relative to mean value of control group

Structure (SMILES)	amount of TH in LC section 3 [%]
CN1CCC=C(C(=O)Nn2ccc3ccccc32)C1 [Example 1, N-(1H-indol-1-yl)-1-methyl-1,2,5,6-tetrahydropyridine-3-carboxamide]	128

same assay, conditions: LC section 4, i.p. 20 mg/kg, three days after single injection, relative to mean value of control group

Structure (SMILES)	amount of TH in LC section 4 [%]
CN1CCC=C(C(=O)Nn2ccc3ccccc32)C1 [Example 1, N-(1H-indol-1-yl)-1-methyl-1,2,5,6-tetrahydropyridine-3-carboxamide]	128

same assay, conditions: LC section 5, i.p. 20 mg/kg, three days after single injection, relative to mean value of control group

Structure (SMILES)	amount of TH in LC section 5
CN1CCC=C(C(=O)Nn2ccc3ccccc32)C1 [Example 1, N-(1H-indol-1-yl)-1-methyl-1,2,5,6-tetrahydropyridine-3-carboxamide]	158* %

same assay, conditions: LC section 6, i.p. 20 mg/kg, three days after single injection, relative to mean value of control group

Structure (SMILES)	amount of TH in LC section 6
CN1CCC=C(C(=O)Nn2ccc3ccccc32)C1 [Example 1, N-(1H-indol-1-yl)-1-methyl-1,2,5,6-tetrahydropyridine-3-carboxamide]	152* %

same assay, conditions: LC section 7, i.p. 20 mg/kg, three days after single injection, relative to mean value of control group

Structure (SMILES)	amount of TH in LC section 7 [%]
CN1CCC=C(C(=O)Nn2ccc3ccccc32)C1 [Example 1, N-(1H-indol-1-yl)-1-methyl-1,2,5,6-tetrahydropyridine-3-carboxamide]	131

same assay, conditions: LC section 8, i.p. 20 mg/kg, three days after single injection, relative to mean value of control group

Structure (SMILES)	amount of TH in LC section 8 [%]
CN1CCC=C(C(=O)Nn2ccc3ccccc32)C1 [Example 1, N-(1H-indol-1-yl)-1-methyl-1,2,5,6-tetrahydropyridine-3-carboxamide]	107

same assay, conditions: LC section 9, i.p. 20 mg/kg, three days after single injection, relative to mean value of control group

Structure (SMILES)	amount of TH in LC section 9 [%]
CN1CCC=C(C(=O)Nn2ccc3ccccc32)C1 [Example 1, N-(1H-indol-1-yl)-1-methyl-1,2,5,6-tetrahydropyridine-3-carboxamide]	106

same assay, conditions: LC section 10, i.p. 20 mg/kg, three days after single injection, relative to mean value of control group

Structure (SMILES)	amount of TH in LC section 10 [%]
CN1CCC=C(C(=O)Nn2ccc3ccccc32)C1 [Example 1, N-(1H-indol-1-yl)-1-methyl-1,2,5,6-tetrahydropyridine-3-carboxamide]	95

same assay, conditions: LC section 11, i.p. 20 mg/kg, three days after single injection, relative to mean value of control group

Structure (SMILES)	amount of TH in LC section 11 [%]
CN1CCC=C(C(=O)Nn2ccc3ccccc32)C1 [Example 1, N-(1H-indol-1-yl)-1-methyl-1,2,5,6-tetrahydropyridine-3-carboxamide]	55

same assay, conditions: LC total, i.p. 20 mg/kg, three days after single injection, relative to mean value of control group

Structure (SMILES)	amount of TH, LC, total [%]
CN1CCC=C(C(=O)Nn2ccc3ccccc32)C1 [Example 1, N-(1H-indol-1-yl)-1-methyl-1,2,5,6-tetrahydropyridine-3-carboxamide]	121

same assay, conditions: SN

Structure (SMILES)	TH induction in the SN, in words
CN1CCC=C(C(=O)Nn2ccc3ccccc32)C1 [Example 1, N-(1H-indol-1-yl)-1-methyl-1,2,5,6-tetrahydropyridine-3-carboxamide]	markedly induces TH

same assay, conditions: VTA

Structure (SMILES)	TH induction in the VTA, in words
CN1CCC=C(C(=O)Nn2ccc3ccccc32)C1 [Example 1, N-(1H-indol-1-yl)-1-methyl-1,2,5,6-tetrahydropyridine-3-carboxamide]	markedly induces TH

same assay, conditions: medial LC

Structure (SMILES)	TH induction in the medial LC (sections 4, 5 and 6), in words
CN1CCC=C(C(=O)Nn2ccc3ccccc32)C1 [Example 1, N-(1H-indol-1-yl)-1-methyl-1,2,5,6-tetrahydropyridine-3-carboxamide]	markedly induces TH

same assay, conditions: substantia nigra, single i.p. injection, relative to mean value of control group

Structure (SMILES)	TH induction in the SN
CN1CCC=C(C(=O)Nn2ccc3ccccc32)C1 [Example 1, N-(1H-indol-1-yl)-1-methyl-1,2,5,6-tetrahydropyridine-3-carboxamide]	155** %

same assay, conditions: ventral tegmental area, single i.p. injection, relative to mean value of control group

Structure (SMILES)	TH induction in the VTA [%]
CN1CCC=C(C(=O)Nn2ccc3ccccc32)C1 [Example 1, N-(1H-indol-1-yl)-1-methyl-1,2,5,6-tetrahydropyridine-3-carboxamide]	125

test system: confluent endothelial cells from bovine capillaries; assay: Predicted crossing of the blood-brain barrier (BBB); assay type: in vitro ADME; set-up: key: high; intermediate; low; conditions: 20 μM in upper compartment, filter with bovine capillary endothelial cells, 10-60 minutes, LC-MS-MS
Experimental: The substances are incubated at 20 μM in the upper compartment of a double container, the upper compartment being separated from the lower compartment either solely by a polycarbonate filter or by the same filter covered with confluent endothelial cells from bovine capillaries. Evaluation of the permeability kinetics is carried out by means of LC-MS-MS quantification of the unchanged substance in the lower compartment after 10, 20, 30, 40 and 60 minutes.
The results are given in the form of the categories: high, intermediate, low.

Structure (SMILES)	degree of crossing of the BBB (category)
CN1CCC=C(C(=O)Nn2ccc3ccccc32)C1 [Example 1, N-(1H-indol-1-yl)-1-methyl-1,2,5,6-tetrahydropyridine-3-carboxamide]	high

test system: not listed separately; assay: Predicted metabolic stability, human hepatic microsomes; assay type: in vitro ADME; conditions: 10^−7 M, human hepatic microsomes 0.33 mg of prot/ml, NADPH
Experimental: as §1

Structure (SMILES)	% metabolic stability predicted using hepatic microsomes, Human [%]
CN1CCC=C(C(=O)Nn2ccc3ccccc32)C1 [Example 1, N-(1H-indol-1-yl)-1-methyl-1,2,5,6-tetrahydropyridine-3-carboxamide]	70
CN1CCN(CCN2CCCC(C(=O)Nn3ccc4ccccc43)C2)CC1 (stereo not drawn) [Example 25, N-(1H-indol-1-yl)-1-[2-(4-methyl-1-piperazinyl)ethyl]-3-piperidine-carboxamide]	63

biological target: 5HT receptors (type 5HT2A) (Homo sapiens, UniProt P28223); assay: Affinity for receptors, displacement of labelled specific ligand: 5HT2A; assay type: binding; conditions: concentration 10^−5 M
Sequence (P28223 whole entry): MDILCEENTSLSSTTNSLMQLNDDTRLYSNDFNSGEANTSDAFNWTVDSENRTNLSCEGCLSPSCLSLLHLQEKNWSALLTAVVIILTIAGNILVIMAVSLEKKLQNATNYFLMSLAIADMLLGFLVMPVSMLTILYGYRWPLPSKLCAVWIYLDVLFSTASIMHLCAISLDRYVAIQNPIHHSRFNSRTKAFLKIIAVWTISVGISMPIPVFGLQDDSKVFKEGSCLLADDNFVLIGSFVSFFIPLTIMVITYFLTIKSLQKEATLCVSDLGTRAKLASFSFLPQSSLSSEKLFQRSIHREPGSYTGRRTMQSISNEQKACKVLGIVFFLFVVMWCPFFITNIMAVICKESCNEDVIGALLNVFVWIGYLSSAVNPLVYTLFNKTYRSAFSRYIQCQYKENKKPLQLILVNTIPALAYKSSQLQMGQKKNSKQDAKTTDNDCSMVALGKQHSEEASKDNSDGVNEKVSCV

Structure (SMILES)	inhibition at 10 µM [%]
CN1CCC=C(C(=O)Nn2ccc3ccccc32)C1 [Example 1, N-(1H-indol-1-yl)-1-methyl-1,2,5,6-tetrahydropyridine-3-carboxamide]	< 10
CN1CCN(CCN2CCCC(C(=O)Nn3ccc4ccccc43)C2)CC1 (stereo not drawn) [Example 25, N-(1H-indol-1-yl)-1-[2-(4-methyl-1-piperazinyl)ethyl]-3-piperidine-carboxamide]	14

same assay, conditions: concentration 10^−7 M

Structure (SMILES)	inhibition at 0.1 µM [%]
CN1CCC=C(C(=O)Nn2ccc3ccccc32)C1 [Example 1, N-(1H-indol-1-yl)-1-methyl-1,2,5,6-tetrahydropyridine-3-carboxamide]	< 10
CN1CCN(CCN2CCCC(C(=O)Nn3ccc4ccccc43)C2)CC1 (stereo not drawn) [Example 25, N-(1H-indol-1-yl)-1-[2-(4-methyl-1-piperazinyl)ethyl]-3-piperidine-carboxamide]	12

biological target: dopaminergic receptors (type D2) (Homo sapiens, UniProt P14416); assay: Affinity for receptors, displacement of labelled specific ligand: D2; assay type: binding; conditions: concentration 10^−5 M
Sequence (P14416 whole entry): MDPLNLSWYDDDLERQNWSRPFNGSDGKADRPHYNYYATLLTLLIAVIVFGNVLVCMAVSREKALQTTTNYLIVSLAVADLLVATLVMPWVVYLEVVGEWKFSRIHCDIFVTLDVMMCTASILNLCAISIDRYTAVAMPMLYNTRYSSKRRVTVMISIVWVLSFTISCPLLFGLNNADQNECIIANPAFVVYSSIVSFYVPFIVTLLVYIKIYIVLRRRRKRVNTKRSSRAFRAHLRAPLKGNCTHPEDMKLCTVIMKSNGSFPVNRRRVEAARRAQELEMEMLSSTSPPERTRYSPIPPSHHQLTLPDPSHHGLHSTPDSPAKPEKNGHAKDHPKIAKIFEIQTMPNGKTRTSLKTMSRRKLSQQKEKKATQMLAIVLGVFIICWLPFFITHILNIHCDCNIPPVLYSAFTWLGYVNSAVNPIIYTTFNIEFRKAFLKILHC

Structure (SMILES)	inhibition at 10 µM [%]
CN1CCC=C(C(=O)Nn2ccc3ccccc32)C1 [Example 1, N-(1H-indol-1-yl)-1-methyl-1,2,5,6-tetrahydropyridine-3-carboxamide]	< 10
CN1CCN(CCN2CCCC(C(=O)Nn3ccc4ccccc43)C2)CC1 (stereo not drawn) [Example 25, N-(1H-indol-1-yl)-1-[2-(4-methyl-1-piperazinyl)ethyl]-3-piperidine-carboxamide]	< 10

same assay, conditions: concentration 10^−7 M

Structure (SMILES)	inhibition at 0.1 µM [%]
CN1CCC=C(C(=O)Nn2ccc3ccccc32)C1 [Example 1, N-(1H-indol-1-yl)-1-methyl-1,2,5,6-tetrahydropyridine-3-carboxamide]	< 10
CN1CCN(CCN2CCCC(C(=O)Nn3ccc4ccccc43)C2)CC1 (stereo not drawn) [Example 25, N-(1H-indol-1-yl)-1-[2-(4-methyl-1-piperazinyl)ethyl]-3-piperidine-carboxamide]	< 10

From US20090258883A1, “1H-Indole-Pyridinecarboxamide and 1H-Indole-Piperidinecarboxamide Compounds” (LES LABORATOIRES SERVIER, priority 2005, published 2009)
